# Biological target: T1, ΔF508-CFTR (Homo sapiens, UniProt P13569, DEL508-508)
# T1 construct: expressed in transfected cells; host or cells: CFSMEo- (human CF submucosal gland epithelial cells, ΔF508/Q2X), transiently transfected by nucleofection
# Test: ΔF508-CFTR-HRP trafficking assay (cell surface expression of ΔF508-CFTR)
# Type: cell-based
# Settings: CFSMEo- cells transiently transfected with ΔF508-CFTR-HRP; test agent 3 μM, 48 h; HRP chemiluminescence
# From the text: Test agents were screened for their effect on cell surface expression of ΔF508-CFTR using the ΔF508-CFTR-HRP trafficking assay. For this assay, a ΔF508-CFTR expression construct was designed with an in-frame insertion of a horseradish peroxidase (HRP) tag into the 4th extracellular loop of CFTR. The HRP tag would be presented extracellularly, in cells transiently transfected with the ΔF508-CFTR-HRP construct, following correction of the ΔF508-CFTR trafficking defect. The quantity of ΔF508-CFTR-HRP expressed on the plasma membrane could therefore be determined by measuring an HRP-dependent signal after the application of a cell-impermeable HRP substrate.
# In brief, CF submucosal gland epithelial cells (CFSMEo-), derived from the airways of a CF patient (ΔF508/Q2X) and provided by Dr. Dieter Gruenert, University of California-San Francisco, were cultured at 37° C. with 5% CO2 in minimum essential medium (MEM) with Earle's salt and nonessential amino acids, supplemented with 10% (volume per volume [v/v]) fetal bovine serum, 2 mM L-glutamine and 1× (v/v) penicillin/streptomycin and grown in tissue culture-treated flasks coated with an extracellular matrix (ECM) cocktail consisting of 10 μg/mL human fibronectin, 30 μg/mL bovine collagen type I, and 100 μg/mL bovine serum albumin in LHC basal medium. These CFSMEo^− cells were transiently transfected with 4 μg of the ΔF508-CFTR-HRP expression construct using the Lonza 4D-Nucleofector Core unit (Lonza, Catalogue No. AAF-1002B) with the X unit (Lonza, Catalogue No. AAF-1002X) and SF Cell Line 4D-Nucleofector X Kit L (Lonza, Catalogue No. V4XC-2024) according to the manufacturer's instructions and plated at 1.2×10^4 cells/well onto collagen-coated, 96-well plates (Corning Inc.). Twenty-four h post-transfection, cells were treated with test agents, solubilized in DMSO at a concentration of 3 μM in replicates of 3, and allowed to incubate for 48 h. To detect HRP expression, cell culture media was removed, cells were washed with PBS and 100 μL of Luminata Forte HRP chemiluminescent substrate (EMD Millipore, Burlington, MA) was added to each well. Following a 5-minute incubation, chemiluminescence was measured in relative luminescent units (RLUs) using an EnVision plate reader (Perkin Elmer, Waltham, MA).
# The ΔF508-CFTR-HRP trafficking data was normalized to the vehicle treated control (0.3% DMSO), followed by calculation of the mean, standard deviation, and standard error. If the test agent increased cell surface expression of ΔF508-CFTR-HRP relative to the vehicle-treated control, then that test agent was considered a ΔF508-CFTR corrector. Based on the description above, the biological activity of the examples in this disclosure is collected in Table 2.
# T1 sequence (P13569 with tags, fused parts or gaps DEL508-508): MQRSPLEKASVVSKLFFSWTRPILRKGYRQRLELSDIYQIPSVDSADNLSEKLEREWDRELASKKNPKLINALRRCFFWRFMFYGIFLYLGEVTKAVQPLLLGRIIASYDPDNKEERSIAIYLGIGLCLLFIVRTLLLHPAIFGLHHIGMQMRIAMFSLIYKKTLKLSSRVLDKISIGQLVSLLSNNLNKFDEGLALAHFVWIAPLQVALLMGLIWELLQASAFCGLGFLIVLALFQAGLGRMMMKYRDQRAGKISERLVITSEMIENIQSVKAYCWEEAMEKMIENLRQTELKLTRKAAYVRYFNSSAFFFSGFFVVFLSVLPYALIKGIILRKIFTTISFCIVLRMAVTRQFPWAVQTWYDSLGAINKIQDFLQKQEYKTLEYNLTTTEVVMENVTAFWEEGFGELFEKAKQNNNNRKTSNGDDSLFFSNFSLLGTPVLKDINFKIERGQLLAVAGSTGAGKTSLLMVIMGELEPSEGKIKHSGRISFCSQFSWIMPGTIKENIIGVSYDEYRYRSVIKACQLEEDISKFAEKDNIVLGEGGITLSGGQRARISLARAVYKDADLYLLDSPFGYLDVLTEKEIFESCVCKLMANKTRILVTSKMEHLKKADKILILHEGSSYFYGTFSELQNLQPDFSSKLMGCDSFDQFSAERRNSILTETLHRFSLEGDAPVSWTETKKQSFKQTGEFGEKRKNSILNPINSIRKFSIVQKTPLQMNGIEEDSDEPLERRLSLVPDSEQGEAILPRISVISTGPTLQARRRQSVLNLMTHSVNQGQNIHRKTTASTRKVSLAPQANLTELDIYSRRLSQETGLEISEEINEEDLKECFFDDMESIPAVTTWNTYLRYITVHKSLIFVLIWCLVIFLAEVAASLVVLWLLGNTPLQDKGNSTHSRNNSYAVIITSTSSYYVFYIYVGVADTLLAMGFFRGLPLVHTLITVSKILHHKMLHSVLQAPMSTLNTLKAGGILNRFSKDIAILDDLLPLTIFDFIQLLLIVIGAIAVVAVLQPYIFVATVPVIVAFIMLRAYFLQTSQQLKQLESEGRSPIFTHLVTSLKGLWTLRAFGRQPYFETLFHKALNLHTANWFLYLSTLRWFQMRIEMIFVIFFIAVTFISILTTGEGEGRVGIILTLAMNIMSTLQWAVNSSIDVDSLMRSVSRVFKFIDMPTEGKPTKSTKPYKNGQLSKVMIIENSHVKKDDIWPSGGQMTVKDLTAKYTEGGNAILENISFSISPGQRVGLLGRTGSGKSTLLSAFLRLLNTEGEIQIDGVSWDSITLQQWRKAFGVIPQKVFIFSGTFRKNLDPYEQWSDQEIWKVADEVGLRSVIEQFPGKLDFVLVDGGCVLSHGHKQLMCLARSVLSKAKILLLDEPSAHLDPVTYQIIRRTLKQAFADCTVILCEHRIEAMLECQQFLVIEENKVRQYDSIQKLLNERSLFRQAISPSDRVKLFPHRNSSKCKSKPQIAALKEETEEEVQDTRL
row,RLUs: ΔF508-CFTR-HRP trafficking data normalized to the vehicle treated control (0.3% DMSO),SMILES
1,C (RLU 0.0 μM-3.5 μM),"C[C@H](Nc1cc(-n2nc(C(F)(F)F)c3c2[C@H](OC24CC(C(=O)O)(C2)C4)CCC3)ccc1F)c1cc2c(cc1F)OC(F)(F)O2 (single isomer, unassigned) [96 (P2)]"
2,C (RLU 0.0 μM-3.5 μM),"C[C@H](Nc1cccc(-n2nc(C(F)(F)F)c3c2[C@@H](OC24CC(C(=O)O)(C2)C4)CCC3)c1)c1cc2c(cc1F)OC(F)(F)O2 (single isomer, unassigned) [97 (P1)]"
3,C (RLU 0.0 μM-3.5 μM),"C[C@H](Nc1cccc(-n2nc(C(F)(F)F)c3c2[C@H](OC24CC(C(=O)O)(C2)C4)CCC3)c1)c1cc2c(cc1F)OC(F)(F)O2 (single isomer, unassigned) [97 (P2)]"
4,C (RLU 0.0 μM-3.5 μM),"C[C@H](Nc1ccc(F)c(-n2nc(C(F)(F)F)c3c2[C@H](OC24CC(C(=O)O)(C2)C4)CCC3)c1)c1cc2c(cc1F)OC(F)(F)O2 (single isomer, unassigned) [98 (P2)]"
5,C (RLU 0.0 μM-3.5 μM),"C[C@H](Nc1ccc(F)c(-n2nc(C(F)(F)F)c3c2[C@@H](OC24CC(C(=O)O)(C2)C4)CCC3)c1)c1ccc2c(c1)OC(F)(F)O2 (single isomer, unassigned) [99 (P1)]"
6,C (RLU 0.0 μM-3.5 μM),"C[C@H](Nc1ccc(F)c(-n2nc(C(F)(F)F)c3c2[C@H](OC24CC(C(=O)O)(C2)C4)CCC3)c1)c1ccc2c(c1)OC(F)(F)O2 (single isomer, unassigned) [99 (P2)]"
7,A (RLU 5.0 μM-10 μM),"C[C@H](Nc1cccc(-n2nc(C(F)(F)F)c3c2[C@@H](OC24CC(C(=O)O)(C2)C4)CCC3)n1)c1ccc2c(c1)OC(F)(F)O2 (single isomer, unassigned) [100 (P1)]"
8,C (RLU 0.0 μM-3.5 μM),"C[C@H](Nc1cccc(-n2nc(C(F)(F)F)c3c2[C@H](OC24CC(C(=O)O)(C2)C4)CCC3)n1)c1ccc2c(c1)OC(F)(F)O2 (single isomer, unassigned) [100 (P2)]"
9,C (RLU 0.0 μM-3.5 μM),"C[C@H](Nc1nc(-n2nc(C(F)(F)F)c3c2[C@@H](OC24CC(C(=O)O)(C2)C4)CCC3)ccc1F)c1ccc2c(c1)OC(F)(F)O2 (single isomer, unassigned) [101 (P1)]"
10,C (RLU 0.0 μM-3.5 μM),"C[C@H](Nc1nc(-n2nc(C(F)(F)F)c3c2[C@H](OC24CC(C(=O)O)(C2)C4)CCC3)ccc1F)c1ccc2c(c1)OC(F)(F)O2 (single isomer, unassigned) [101 (P2)]"
11,C (RLU 0.0 μM-3.5 μM),"C[C@H](Nc1cc(-n2nc(C(F)(F)F)c3c2[C@@H](OC24CC(c5nc(=O)o[nH]5)(C2)C4)CCC3)ccc1F)c1ccc2c(c1)OC(F)(F)O2 (single isomer, unassigned) [102 (P1)]"
12,B (RLU 3.5 μM-5.0 μM),"C[C@H](Nc1cc(-n2nc(C(F)(F)F)c3c2[C@H](OC24CC(c5nc(=O)o[nH]5)(C2)C4)CCC3)ccc1F)c1ccc2c(c1)OC(F)(F)O2 (single isomer, unassigned) [102 (P2)]"
13,B (RLU 3.5 μM-5.0 μM),"C[C@H](Nc1cc(-n2nc(C(F)(F)F)c3c2[C@@H](OC24CC(c5nc(=O)o[nH]5)(C2)C4)CCC3)ccc1F)c1cc2c(cc1F)OC(F)(F)O2 (single isomer, unassigned) [103 (P1)]"
14,C (RLU 0.0 μM-3.5 μM),"C[C@H](Nc1cc(-n2nc(C(F)(F)F)c3c2[C@H](OC24CC(c5nc(=O)o[nH]5)(C2)C4)CCC3)ccc1F)c1cc2c(cc1F)OC(F)(F)O2 (single isomer, unassigned) [103 (P2)]"
15,B (RLU 3.5 μM-5.0 μM),"C[C@H](Nc1cc(-n2nc(C#N)c3c2[C@@H](OC24CC(C(=O)O)(C2)C4)CCC3)ccc1F)c1ccc2c(c1)OC(F)(F)O2 (single isomer, unassigned) [106 (P1)]"
16,C (RLU 0.0 μM-3.5 μM),"C[C@H](Nc1cc(-n2nc(C#N)c3c2[C@H](OC24CC(C(=O)O)(C2)C4)CCC3)ccc1F)c1ccc2c(c1)OC(F)(F)O2 (single isomer, unassigned) [106 (P2)]"

# More lines, now with the values behind:
row,SMILES,RLUs: ΔF508-CFTR-HRP trafficking data normalized to the vehicle treated control (0.3% DMSO)
1,"C[C@H](Nc1ccc(F)c(-n2nc(C(F)(F)F)c3c2[C@@H](OC24CC(C(=O)O)(C2)C4)CCC3)c1)c1cc2c(cc1F)OC(F)(F)O2 (single isomer, unassigned) [98 (P1)]",C (RLU 0.0 μM-3.5 μM)
2,"C[C@H](Oc1cc(-n2nc(C#N)c3c2[C@@H](OC24CC(C(=O)O)(C2)C4)CCC3)ccc1F)c1ccc2c(c1)OC(F)(F)O2 (single isomer, unassigned) [105 (P1)]",B (RLU 3.5 μM-5.0 μM)
3,"C[C@H](Oc1cc(-n2nc(C#N)c3c2[C@H](OC24CC(C(=O)O)(C2)C4)CCC3)ccc1F)c1ccc2c(c1)OC(F)(F)O2 (single isomer, unassigned) [105 (P2)]",B (RLU 3.5 μM-5.0 μM)
4,"C[C@H](Nc1cc(-n2nc(C#N)c3c2[C@@H](OC24CC(C(=O)O)(C2)C4)CCC3)ncc1F)c1ccc2c(c1)OC(F)(F)O2 (single isomer, unassigned) [107 (P1)]",C (RLU 0.0 μM-3.5 μM)
5,"C[C@H](Nc1cc(-n2nc(C#N)c3c2[C@H](OC24CC(C(=O)O)(C2)C4)CCC3)ncc1F)c1ccc2c(c1)OC(F)(F)O2 (single isomer, unassigned) [107 (P2)]",C (RLU 0.0 μM-3.5 μM)
6,"C[C@H](Nc1nc(-n2nc(C#N)c3c2[C@@H](OC24CC(C(=O)O)(C2)C4)CCC3)ccc1F)c1ccc2c(c1)OC(F)(F)O2 (single isomer, unassigned) [108 (P1)]",C (RLU 0.0 μM-3.5 μM)
7,"C[C@H](Nc1nc(-n2nc(C#N)c3c2[C@H](OC24CC(C(=O)O)(C2)C4)CCC3)ccc1F)c1ccc2c(c1)OC(F)(F)O2 (single isomer, unassigned) [108 (P2)]",C (RLU 0.0 μM-3.5 μM)
8,"C[C@H](Oc1cc(-n2nc(C(F)(F)F)c3c2[C@@H](Oc2ccc(C(=O)O)cc2)CN(C)C3)ccn1)c1ccc2c(c1)OC(F)(F)O2 (single isomer, unassigned) [115 (P1)]",B (RLU 3.5 μM-5.0 μM)
9,"C[C@H](Oc1cc(-n2nc(C(F)(F)F)c3c2[C@H](Oc2ccc(C(=O)O)cc2)CN(C)C3)ccn1)c1ccc2c(c1)OC(F)(F)O2 (single isomer, unassigned) [115 (P2)]",C (RLU 0.0 μM-3.5 μM)
10,"C[C@H](Oc1cccc(-n2nc(C(F)(F)F)c3c2[C@@H](C(=O)N2CCC(C(=O)O)CC2)CCC3)c1)c1ccc2c(c1)OC(F)(F)O2 (single isomer, unassigned) [120 (P1)]",B (RLU 3.5 μM-5.0 μM)
11,"C[C@H](Oc1cccc(-n2nc(C(F)(F)F)c3c2[C@H](C(=O)N2CCC(C(=O)O)CC2)CCC3)c1)c1ccc2c(c1)OC(F)(F)O2 (single isomer, unassigned) [120 (P2)]",C (RLU 0.0 μM-3.5 μM)
12,"C[C@H](Oc1cncc(-n2nc(C(F)(F)F)c3c2[C@@H](C(=O)N2CCC(C(=O)O)CC2)CCC3)c1)c1ccc2c(c1)OC(F)(F)O2 (single isomer, unassigned) [122 (P1)]",C (RLU 0.0 μM-3.5 μM)
13,"C[C@H](Oc1cncc(-n2nc(C(F)(F)F)c3c2[C@H](C(=O)N2CCC(C(=O)O)CC2)CCC3)c1)c1ccc2c(c1)OC(F)(F)O2 (single isomer, unassigned) [122 (P2)]",B (RLU 3.5 μM-5.0 μM)
14,"C[C@H](Oc1cncc(-n2nc(C(F)(F)F)c3c2[C@@H](CN2CCC(C(=O)O)CC2)CCC3)c1)c1ccc2c(c1)OC(F)(F)O2 (single isomer, unassigned) [124 (P1)]",B (RLU 3.5 μM-5.0 μM)
